Results published in patent US7094581B2, “Hyaluronan synthases and methods of making and using same” (The Board of Regents of the University of Oklahoma, priority 1998, dated 2006).

Tested on: triple Cys-mutants of seHAS
Assay: NEM inactivation of triple Cys-mutants of seHAS and protection by substrates
Type: biochemical, Streptococcus equisimilis
Conditions: 5 mM NEM, 4° C., 10 min
Method: FIG. 6. Substrates protect triple Cys-mutants of seHAS from inactivation by NEM. E. coli membranes containing the indicated triple Cys-mutant of seHAS (each with a single remaining Cys residue) were treated at 4° C. for 10 min with no additions (control; 100% values) or with 5 mM NEM alone and in the presence of either UDP, UDP-GIcUA or UDP-GIcNAc. Unreacted Nem was then quenched and HAS activity was determined. Results are not shown for the mutant containing only Cys^367, since NEM inactivation of this mutant is ˜10% and all values were essentially identical.
Although the 4 Cys residues in seHAS (positions 226, 262, 281 and 367) are roughly conserved in all Class I HAS family members, the Cys-null mutants of seHAs and spHAS are active, with minimal changes in their kinetics compared to wild type. It is also shown here that neither HAS contains disulfide bonds. To understand why these four cysteines are, nevertheless, largely conserved within the Class I HASs, NEM sensitivity was examined (i.e., the time- and dose-dependent inhibition) of all possible Cys-to-Ala mutants of seHAS. […] Cys281 appears not to be within a UDP-sugar binding site, since the triple Cys-mutant seHAS (A3C)C281 was not protected from NEM inhibition by UDP, UDP-GIcUA or UDP-GIcNAc (FIG. 6).
Stock solutions (10–100 mM) of NEM, IAA or other sulfhydryl reagents were made in PBS, pH 7.0. […]

**Q.** Which “NEM inactivation of the seHAS mutant containing only Cys^367” value does the source give for `CCN1C(=O)C=CC1=O` [N-ethylmaleimide] here?
**A.** ~10%
